According to patent publication US4643991A (The University of Kentucky Research Foundation, priority 1984, dated 1987):
Read-outs that look alike come from different tables or passages of the source.

Assays:
[1] = biological target: porcine pancreatic elastase (Sus scrofa, UniProt P00772); assay: Inhibition of porcine pancreatic (PP) elastase in vitro, substrate BOC-Ala-ONp, Lineweaver-Burk and Dixon plots; format: biochemical; conditions: for PPE (inhibitory activity towards PP elastase): Table 4
Protocol: As pointed out above, the compounds of the invention are useful as elastase inhibitors. To evaluate the compounds, the inhibitory activity of the compounds were tested in vitro against the serine dependent proteolytic enzymes, trypsin, chymotrypsin and porcine pancreatic elastase. All three enzymes belong to the family of serine proteases where the catalytic residues are composed of a triad of amino acid residues, serine, histidine and aspartic acid that actually perform the peptide bond hydrolysis. In addition to the catalytic residues, the active site is composed of an extended substrate binding site that consists of a primary substrate binding site S1, and various subsites on either side of the scissile bond.
The rate and extent of inhibition could be effected by varying the structure of R and R'. As shown from kinetic parameters when R is p-nitrophenol, and R' was varied, all the peptidyl carbamates inhibited PP elastase except when R' was a tert-butyl group. […] In all cases the inhibition was specific and competitive. […] Moreover, the nature of the protecting group (P5) seemed to affect the affinity of the inhibitor for the enzyme. In all these cases the inhibition was studied at different substrate and inhibitor concentrations and the mode of inhibition determined from Lineweaver-Burk and Dixon plots. Ki values were calculated from the latter. […] The enzymatic activity of PP elastase after treatment with the inhibitor(s) was also tested using the natural substrate elastin-congored.

HL elastase = biological target: T1, HL elastase (Homo sapiens, UniProt P08246); assay: Inhibition of human leukocyte (HL) elastase; format: biochemical; conditions: Table 4; [E] = 0.61 μM
T1 sequence (P08246 30-267): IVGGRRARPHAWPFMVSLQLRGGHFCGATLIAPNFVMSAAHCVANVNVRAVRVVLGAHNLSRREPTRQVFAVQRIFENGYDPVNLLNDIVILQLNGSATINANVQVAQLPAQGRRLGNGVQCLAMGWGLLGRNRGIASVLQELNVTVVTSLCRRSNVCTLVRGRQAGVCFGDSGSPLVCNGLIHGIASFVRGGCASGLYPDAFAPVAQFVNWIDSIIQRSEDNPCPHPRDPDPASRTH

[2] = Table 1, changes in P1', PP elastase, read-out: Ki
[3] = Table 1, changes in P1', [E] = 0.61 μM
[4] = Table 2, changes in P1, [E] = 0.61 μM
[5] = Table 3, variations in P5 and P3

porcine pancreatic elastase, sequence (P00772 27-266): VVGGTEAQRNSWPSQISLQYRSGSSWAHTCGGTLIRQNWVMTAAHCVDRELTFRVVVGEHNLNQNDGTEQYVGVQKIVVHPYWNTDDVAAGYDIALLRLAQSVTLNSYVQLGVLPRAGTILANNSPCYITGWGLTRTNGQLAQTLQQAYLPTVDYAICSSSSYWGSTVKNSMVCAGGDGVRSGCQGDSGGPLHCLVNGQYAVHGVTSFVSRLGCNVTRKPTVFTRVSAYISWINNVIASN

## C[C@H](NC(=O)OC(C)(C)C)C(=O)Oc1ccc([N+](=O)[O-])cc1 [BOC-Ala-ONp, reference compound]
[1]; substrate of PP elastase assay
  Km: 4.8 mM

## CC(C)N(CC(=O)[C@@H]1CCCN1C(=O)OC(C)(C)C)C(=O)Oc1ccc([N+](=O)[O-])cc1 [Compound 6, p-Nitrophenyl N-(N'-t-Boc-L-prolyl)Methyl-N-Isopropylcarbamate]
[1]; detected by the release of p-nitrophenol
  Hydrolysis by PP elastase: hydrolysis of 6 by PP elastase

## COC(=O)CCC(=O)N[C@@H](C)C(=O)N[C@@H](C)C(=O)N1CCC[C@H]1C(=O)CN(C(=O)Oc1ccc([N+](=O)[O-])cc1)C(C)C [Compound 10, p-Nitrophenyl N-(Methy Succinyl-L-Alanyl-L-Alanyl-L-Prolymethyl)-N-Isopropyl Carbamate]
[1]; [2]
  Ki: 42.5 µM
[1]; [3]
  Comments (inhibition of PP elastase): +
[1]; [4]
  Comments (inhibition of PP elastase): +

## COC(=O)CCC(=O)N[C@@H](C)C(=O)N[C@@H](C)C(=O)N1CCC[C@H]1C(=O)CN(C(=O)Oc1ccccc1)C(C)C [Compound 11, Phenyl N-(Methyl Succinyl-L-Alanyl-L-Alanyl-L-Prolyl Methyl)-N-Isopropyl Carbamate]
[1]; [2]
  Ki: 32.5 µM
[1]; [3]
  Comments (inhibition of PP elastase): +

## COC(=O)CCC(=O)N[C@@H](C)C(=O)N[C@@H](C)C(=O)N1CCC[C@H]1C(=O)CN(C(=O)Sc1nnnn1C)C(C)C [Compound 18]
[1]; [2]
  Ki: 14.8 µM
[1]; [3]
  Comments (inhibition of PP elastase): +

## CCCN(CC(=O)[C@@H]1CCCN1C(=O)[C@H](C)NC(=O)[C@H](C)NC(=O)CCC(=O)OC)C(=O)Oc1ccc([N+](=O)[O-])cc1 [Compound 29, P-Nitrophenyl N-(methyl succinyl-L-alanyl-L-alanyl-L-prolylmethyl) N-propylcarbamate]
[1]; Table 2, changes in P1, PP elastase, read-out: Ki
  Ki: 30.5 µM
[1]; [4]
  Comments (inhibition of PP elastase): +

## COC(=O)CCC(=O)N[C@@H](C)C(=O)N[C@@H](C)C(=O)N1CCC[C@H]1C(=O)CN(C(=O)Oc1ccc([N+](=O)[O-])cc1)C1CC1 [Compound 32, P-Nitrophenyl N-(methyl succinyl-L-alanyl-L-analyl-L-prolylmethyl)-N-cyclopropylcarbamate]
[1]; [4]
  Comments (inhibition of PP elastase): +

## COC(=O)CCC(=O)N[C@@H](C)C(=O)N[C@@H](C)C(=O)N1CCC[C@H]1C(=O)CN(CC(C)C)C(=O)Oc1ccc([N+](=O)[O-])cc1 [Compound 47, p-Nitrophenyl N-(methylsuccinyl-L-alanyl-L-alanyl-L-prolylmethyl)-N-(2-methyl)propylcarbamate]
[1]; [E] = 0.61 μM
  PPE (inhibitory activity towards PP elastase): - (No inhibition at [I] < 150 μM using [E] = 0.61 μM.)

## COC(=O)CCC(=O)N[C@@H](C)C(=O)N[C@@H](C)C(=O)N1CCC[C@H]1C(=O)CN(Cc1ccccc1)C(=O)Oc1ccc([N+](=O)[O-])cc1 [Compound 51, P-Nitrophenyl N-(methyl succinyl-L-alanyl-L-alanyl-L-prolylmethyl)-N-phenylmethylcarbamate]
HL elastase
  HLE (inhibitory activity towards HL elastase): - (No inhibition at [I] < 150 μM using [E] = 0.61 μM.)
[1]; [E] = 0.61 μM
  PPE (inhibitory activity towards PP elastase): - (No inhibition at [I] < 150 μM using [E] = 0.61 μM.)

## COC(=O)CCC(=O)N[C@@H](C)C(=O)N[C@@H](C)C(=O)N1CCC[C@H]1C(=O)CN(C(=O)Oc1ccc([N+](=O)[O-])cc1)C1CCCCC1 [Compound 55, P-Nitrophenyl N-(methyl succinyl-L-alanyl-L-alanyl-L-prolylmethyl)-N-cyclohexylcarbamate]
HL elastase
  HLE (inhibitory activity towards HL elastase): - (No inhibition at [I] < 150 μM using [E] = 0.61 μM.)
[1]; [E] = 0.61 μM
  PPE (inhibitory activity towards PP elastase): - (No inhibition at [I] < 150 μM using [E] = 0.61 μM.)

## COC(=O)CCC(=O)N[C@@H](C)C(=O)N[C@@H](C)C(=O)N1CCC[C@H]1C(=O)CN(C(=O)Oc1c(F)c(F)c(F)c(F)c1F)C(C)C [Compound 58, Pentafluorophenyl N-(methyl succinyl-L-analyl-L-alanyl-L-prolymethyl)-N-isopropyl-carbamate]
[1]; [2]
  Ki: 37.5 µM
[1]; [3]
  Comments (inhibition of PP elastase): +
[1]; [5]
  Comments (inhibition of PP elastase): +

## COC(=O)CCC(=O)N[C@@H](C)C(=O)N[C@@H](C)C(=O)N1CCC[C@H]1C(=O)CN(C(=O)OCC(F)(F)C(F)(F)C(F)(F)F)C(C)C [Compound 61, Heptafluorobutyl N-(methyl succinyl-L-alanyl-L-alanyl-L-prolylmethyl)-N-isopropylcarbamate]
[1]; [3]
  Comments (inhibition of PP elastase): +

## COC(=O)CCC(=O)N[C@@H](C)C(=O)N[C@@H](C)C(=O)N1CCC[C@H]1C(=O)CN(C)C(=O)Oc1ccc([N+](=O)[O-])cc1 [Compound 68, p-Nitropheny N-(methyl succinyl-L-alanyl-L-alanyl-L-prolymethyl)-N-methyl-carbamate]
[1]; [4]
  Comments (inhibition of PP elastase): +

## COC(=O)CCC(=O)N[C@@H](C)C(=O)N[C@@H](C)C(=O)N1CCC[C@H]1C(=O)CN(C(=O)Oc1ccc([N+](=O)[O-])cc1)C(C)(C)C [Compound 72]
[1]; [4]
  Comments (inhibition of PP elastase): - (NO INHIBITION OF PP ELASTASE AT [I] < 150 μM USING [E] = 0.61 μM)

## CC(C)N(CC(=O)[C@@H]1CCCN1C(=O)[C@H](C)NC(=O)[C@H](C)NC(=O)C(F)(F)F)C(=O)Oc1c(F)c(F)c(F)c(F)c1F [Compound 93, Pentafluorophenyl N-(trifluoroacetyl-L-alanyl-L-alanyl-L-prolylmethyl)-N-isopropylcarbamate]
[1]
  Ki: 49 µM
[1]; [5]
  Comments (inhibition of PP elastase): +
